# Test results as given in patent US11912703B2, “6-azaindole compounds” (BRISTOL-MYERS SQUIBB COMPANY, priority 2017, dated 2024).
# pIC50: −log10 of the molar value. Like-named read-outs stand apart in the source and are kept apart here.
# Tests used:
# human TLR9 = human TLR9 (Homo sapiens (Human), UniProt Q9NR96); experiment: TLR9 inhibition reporter assay (HEK-Blue SEAP);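 note: SEAP driven by IFN-β minimal promoter carrying five NF-κB and AP-1 sites, 22 h at 37 °C, compounds 0.05 nM–50 µM, inhibition scaled between agonist-plus-DMSO and reference-inhibitor wells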
# Sequence of human TLR9 (Q9NR96 26-1032): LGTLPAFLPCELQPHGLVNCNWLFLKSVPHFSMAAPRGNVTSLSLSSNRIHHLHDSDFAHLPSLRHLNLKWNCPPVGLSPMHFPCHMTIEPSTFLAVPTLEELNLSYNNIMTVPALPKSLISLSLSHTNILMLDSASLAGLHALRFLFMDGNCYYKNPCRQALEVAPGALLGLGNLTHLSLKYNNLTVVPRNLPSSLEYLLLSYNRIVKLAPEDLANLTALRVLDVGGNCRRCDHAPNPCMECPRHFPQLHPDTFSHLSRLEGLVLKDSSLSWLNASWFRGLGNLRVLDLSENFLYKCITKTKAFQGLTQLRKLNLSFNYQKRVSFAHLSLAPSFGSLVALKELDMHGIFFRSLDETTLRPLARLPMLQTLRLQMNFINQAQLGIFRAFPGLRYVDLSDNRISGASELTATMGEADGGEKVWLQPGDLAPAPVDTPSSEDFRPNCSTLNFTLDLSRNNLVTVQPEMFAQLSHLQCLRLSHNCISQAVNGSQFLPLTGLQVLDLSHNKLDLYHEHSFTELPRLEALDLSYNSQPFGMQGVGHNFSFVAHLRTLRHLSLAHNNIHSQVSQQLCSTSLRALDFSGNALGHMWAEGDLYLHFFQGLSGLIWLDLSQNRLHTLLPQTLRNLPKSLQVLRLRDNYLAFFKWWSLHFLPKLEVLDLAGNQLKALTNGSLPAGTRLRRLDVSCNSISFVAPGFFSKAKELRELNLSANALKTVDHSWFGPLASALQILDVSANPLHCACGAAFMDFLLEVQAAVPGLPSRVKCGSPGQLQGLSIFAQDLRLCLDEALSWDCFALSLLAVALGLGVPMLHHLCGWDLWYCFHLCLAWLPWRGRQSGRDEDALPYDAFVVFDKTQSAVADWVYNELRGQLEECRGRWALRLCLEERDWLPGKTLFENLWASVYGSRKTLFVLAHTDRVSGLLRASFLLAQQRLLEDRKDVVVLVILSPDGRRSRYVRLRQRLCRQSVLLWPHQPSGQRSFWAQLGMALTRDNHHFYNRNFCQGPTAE
# human TLR7 = human TLR7 (Homo sapiens (Human), UniProt Q9NYK1); experiment: TLR7 inhibition reporter assay (HEK-Blue SEAP); type: cell-based; conditions: HEK-Blue cells overexpressing human TLR7, gardiquimod 7.5 μM stimulation
# Sequence of human TLR7 (Q9NYK1 27-1049): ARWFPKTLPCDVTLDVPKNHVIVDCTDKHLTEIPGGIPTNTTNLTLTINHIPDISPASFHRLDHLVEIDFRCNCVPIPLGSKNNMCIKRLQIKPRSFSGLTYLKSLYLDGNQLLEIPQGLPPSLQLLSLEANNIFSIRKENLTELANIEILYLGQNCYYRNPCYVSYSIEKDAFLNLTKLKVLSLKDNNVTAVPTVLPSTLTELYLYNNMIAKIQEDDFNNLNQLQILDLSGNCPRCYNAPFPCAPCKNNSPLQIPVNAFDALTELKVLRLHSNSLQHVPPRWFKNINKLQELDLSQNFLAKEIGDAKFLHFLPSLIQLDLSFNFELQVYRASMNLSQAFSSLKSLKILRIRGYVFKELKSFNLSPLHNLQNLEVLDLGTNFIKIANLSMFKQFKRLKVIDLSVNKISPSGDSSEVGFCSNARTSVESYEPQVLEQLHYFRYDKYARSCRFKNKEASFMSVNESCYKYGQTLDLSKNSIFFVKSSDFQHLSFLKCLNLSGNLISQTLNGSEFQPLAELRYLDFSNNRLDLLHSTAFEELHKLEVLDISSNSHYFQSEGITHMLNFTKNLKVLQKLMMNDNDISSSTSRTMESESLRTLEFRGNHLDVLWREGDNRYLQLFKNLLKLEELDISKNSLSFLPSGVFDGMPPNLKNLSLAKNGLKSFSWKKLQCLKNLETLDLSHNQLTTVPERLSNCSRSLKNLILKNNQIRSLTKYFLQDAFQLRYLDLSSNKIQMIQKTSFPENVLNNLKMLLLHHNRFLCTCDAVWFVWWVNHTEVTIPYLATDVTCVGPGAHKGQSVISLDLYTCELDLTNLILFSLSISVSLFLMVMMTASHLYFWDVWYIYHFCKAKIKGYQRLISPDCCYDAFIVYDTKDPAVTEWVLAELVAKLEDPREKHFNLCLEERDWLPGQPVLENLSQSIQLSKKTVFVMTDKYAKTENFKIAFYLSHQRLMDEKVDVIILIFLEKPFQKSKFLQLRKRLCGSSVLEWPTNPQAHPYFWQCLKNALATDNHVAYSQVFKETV
# human TLR8 = human TLR8 (Homo sapiens (Human), UniProt Q9NR97); experiment: TLR8 inhibition reporter assay (HEK-Blue SEAP);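 note: SEAP driven by IFN-β minimal promoter with five NF-κB and AP-1 sites, compounds tested 0.05 nM to 50 µM, 22 h incubation, inhibition relative to agonist plus DMSO wells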
# Sequence of human TLR8 (Q9NR97 27-1041): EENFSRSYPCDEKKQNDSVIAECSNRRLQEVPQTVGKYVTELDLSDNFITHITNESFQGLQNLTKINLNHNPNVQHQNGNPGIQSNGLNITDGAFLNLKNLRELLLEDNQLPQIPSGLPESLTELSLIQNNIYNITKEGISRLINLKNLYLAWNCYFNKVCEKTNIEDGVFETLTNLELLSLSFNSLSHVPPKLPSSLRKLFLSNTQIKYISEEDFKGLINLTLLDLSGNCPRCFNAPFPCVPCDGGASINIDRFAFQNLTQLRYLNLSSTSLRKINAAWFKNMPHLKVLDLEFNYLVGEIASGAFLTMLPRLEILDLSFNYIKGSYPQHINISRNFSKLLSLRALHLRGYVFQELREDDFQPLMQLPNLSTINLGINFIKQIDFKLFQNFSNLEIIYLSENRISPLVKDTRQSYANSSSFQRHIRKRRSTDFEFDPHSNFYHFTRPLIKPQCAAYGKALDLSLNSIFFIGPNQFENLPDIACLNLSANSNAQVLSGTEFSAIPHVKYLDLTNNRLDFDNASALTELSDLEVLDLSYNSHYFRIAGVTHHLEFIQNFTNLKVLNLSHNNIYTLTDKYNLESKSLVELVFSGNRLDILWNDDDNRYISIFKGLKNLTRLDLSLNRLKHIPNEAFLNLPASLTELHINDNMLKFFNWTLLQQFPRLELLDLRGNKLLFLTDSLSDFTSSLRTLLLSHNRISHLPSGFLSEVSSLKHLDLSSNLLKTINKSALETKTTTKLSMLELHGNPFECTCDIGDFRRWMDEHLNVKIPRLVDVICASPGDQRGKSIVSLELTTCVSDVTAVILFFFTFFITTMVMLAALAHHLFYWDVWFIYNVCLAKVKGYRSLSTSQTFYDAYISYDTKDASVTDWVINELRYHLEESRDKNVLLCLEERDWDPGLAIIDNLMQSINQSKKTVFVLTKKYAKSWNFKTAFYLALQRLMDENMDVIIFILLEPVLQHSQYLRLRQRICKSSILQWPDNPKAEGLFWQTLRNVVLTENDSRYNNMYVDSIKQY
# Description: HEK-Blue™-cells (Invivogen) overexpressing human TLR7, TLR8 or TLR9 receptors were used for screening inhibitors of these receptors using an inducible SEAP (secreted embryonic alkaline phosphatase) reporter gene under the control of the IFN-β minimal promoter fused to five NF-κB and AP-1-binding sites. Briefly, cells are seeded into Greiner 384 well plates (15000 cells per well for TLR7, 20,000 for TLR8 and 25,000 for TLR9) and then treated with test compounds in DMSO to yield a final dose response concentration range of 0.05 nM-50 μM. After a 30 minute compound pre-treatment at room temperature, the cells are then stimulated with a TLR7 ligand (gardiquimod at a final concentration of 7.5 μM), TLR8 ligand (R848 at a final concentration of 15.9 μM) or TLR9 ligand (ODN2006 at a final concentration of 5 nM) to activate NF-κB and AP-1 which induce the production of SEAP. After a 22 hour incubation at 37° C., 500 CO2, SEAP levels are determined with the addition of HEK-Blue™ Detection reagent (Invivogen), a cell culture medium that allows for detection of SEAP, according to manufacturer's specifications.
# [1] = read-out: TLR9 IC50; HEK-Blue cells overexpressing human TLR9, ODN2006 5 nM stimulation, SEAP reporter
# [2] = read-out: TLR8 IC50; HEK-Blue cells overexpressing human TLR8, R848 15.9 μM stimulation, SEAP reporter
# [3] = read-out: TLR9 IC50; HEK-Blue cells overexpressing human TLR9; ODN2006 5 nM stimulation; SEAP reporter
# [4] = read-out: TLR8 IC50; HEK-Blue cells overexpressing human TLR8; R848 15.9 μM stimulation; SEAP reporter
SMILES,pIC50 (human TLR9; [1]),pIC50 (human TLR7),pIC50 (human TLR8; [2]),pIC50 (human TLR9; [3]),pIC50 (human TLR8; [4])
Cc1c(-c2[nH]c3cnc(N4CCN(C(C)C)CC4)c(F)c3c2C(C)C)cn2ncnc2c1C [Example 412],5.24,8.17,9.54,,
COc1cc(-c2[nH]c3cnc(C4CCC(N(C)C5COC5)CC4)c(F)c3c2C(C)C)cn2ncnc12 (centres unmarked) [Example 106],5.71,8.31,8.30,,
CNCCN1CCC(c2cc3c(C)c(-c4ccc(OC)c(OC)c4)[nH]c3cn2)CC1 [Example 8],6.59,5.18,4.80,,
Cc1c(-c2[nH]c3cnc(C4CCNCC4)cc3c2C(C)C)cn2ncnc2c1C [Example 28],6.22,7.89,7.59,,
COc1cc(-c2[nH]c3cnc(N4CCN(C5CCC5)C[C@H]4C)c(F)c3c2C(C)C)cn2ncnc12 [Example 441],5.14,8.40,7.96,,
COc1cc(-c2[nH]c3cnc(C4CCC(NC5COC5)C4)cc3c2C(C)C)cn2ncnc12 (centres unmarked) [Example 93],5.55,7.74,7.43,,
COc1cc(-c2[nH]c3cnc(N4CC5(CN(CC(C)C)C5)C4)c(F)c3c2C(C)C)cn2ncnc12 [Example 372],5.26,8.10,6.36,,
COc1cc(-c2[nH]c3cnc(N4CC5(C4)CN(C4CCC4)C5)c(F)c3c2C(C)C)cn2ncnc12 [Example 381],5.59,8.00,7.96,,
COc1cc(-c2[nH]c3cnc(N4CC5(CN(C)C5)C4)c(F)c3c2C(C)C)cn2ncnc12 [Example 378],5.29,8.22,8.47,,
COc1cc(-c2[nH]c3cnc(N4CCN(CCS(C)(=O)=O)C[C@H]4C)c(F)c3c2C(C)C)cn2ncnc12 [Example 450],,7.92,,< 4.30,7.41
Cc1cc(-c2[nH]c3cnc(C4CCC(NC5(C)COC5)CC4)c(F)c3c2C(C)C)cn2ncnc12 (centres unmarked) [Example 231],,8.23,,5.38,8.18
COc1cc(-c2[nH]c3cnc(N4CCC(NCC(=O)N(C)C)CC4)cc3c2C(C)C)cn2ncnc12 [Example 333],5.97,8.27,8.37,,
COc1cc(-c2[nH]c3cnc(N4CCN(CC(=O)N(C)C)C[C@H]4C)c(F)c3c2C(C)C)cn2ncnc12 [Example 446],< 4.30,7.74,7.68,,
COc1cc(-c2[nH]c3cnc(C4CCC(NCC5(C)COC5)C4)cc3c2C(C)C)cn2ncnc12 (centres unmarked) [Example 275],6.07,7.46,7.43,,
COc1cc(-c2[nH]c3cnc(C4CCC(NCC(C)(C)C)C4)cc3c2C(C)C)cn2ncnc12 (centres unmarked) [Example 210],5.97,7.47,8.18,,
Cc1c(-c2[nH]c3cnc(C4CCC(NCC(F)F)CC4)cc3c2C(C)C)cn2ncnc2c1C (centres unmarked) [Example 336],5.40,8.06,7.44,,
COc1cc(-c2[nH]c3cnc(C4CCN(CCS(C)(=O)=O)CC4)c(F)c3c2C(C)C)cn2ncnc12 [Example 14],4.89,8.41,8.47,,
COc1cc(-c2[nH]c3cnc(C4CCC(NC5COC5)CC4)cc3c2C(C)C)cn2ncnc12 (centres unmarked) [Example 308],6.80,8.10,7.60,,
COc1cc(-c2[nH]c3cnc(C4CCC(NCC(C)(C)F)CC4)c(C)c3c2C(C)C)cn2ncnc12 (centres unmarked) [Example 244],6.23,8.05,7.80,,
COCCNC1CCC(c2cc3c(C(C)C)c(-c4cn5ncnc5c(C)c4C)[nH]c3cn2)CC1 (centres unmarked) [Example 347],6.10,8.41,7.52,,
"Cc1c(-c2[nH]c3cnc(N4CC5(CNC5)C4)c(F)c3c2C(C)C)cn2ncnc2c1C [Example 392, 6-(4-fluoro-3-isopropyl-5-(2,6-diazaspiro[3.3]heptan-2-yl)-1H-pyrrolo[2,3-c]pyridin-2-yl)-7,8-dimethyl-[1,2,4]triazolo[1,5-a]pyridine]",5.05,7.62,7.89,,
COc1cc(-c2[nH]c3cnc(N4CC5(CN(CCS(C)(=O)=O)C5)C4)c(F)c3c2C(C)C)cn2ncnc12 [Example 357],4.43,7.68,8.00,,
COc1cc(-c2[nH]c3cnc(C4CCC(NC5CCOCC5)CC4)c(C)c3c2C(C)C)cn2ncnc12 (centres unmarked) [Example 176],6.49,7.80,7.74,,

# The next compounds have a higher pIC50 (human TLR7) than those just listed; values first:
pIC50 (human TLR9; [1]),pIC50 (human TLR7),pIC50 (human TLR8; [2]),pIC50 (human TLR9; [3]),pIC50 (human TLR8; [4]),SMILES
4.88,8.44,8.29,,,Cc1cc(-c2[nH]c3cnc(C4CCN(CCS(C)(=O)=O)CC4)c(F)c3c2C(C)C)cn2ncnc12 [Example 149]
,8.49,,4.66,8.60,Cc1c(-c2[nH]c3cnc(N4CCN(C5COC5)C[C@H]4C)c(F)c3c2C(C)C)cn2ncnc2c1C [Example 457]
6.55,8.52,7.70,,,COc1cc(-c2[nH]c3cnc(C4CCC(N5CCC5)CC4)cc3c2C(C)C)cn2ncnc12 (centres unmarked) [Example 324]
6.39,8.57,8.35,,,CCN(C)C1CCC(c2ncc3[nH]c(-c4cc(OC)c5ncnn5c4)c(C(C)C)c3c2F)CC1 (centres unmarked) [Example 77]
6.03,8.59,8.96,,,Cc1c(-c2[nH]c3cnc(C4CCC(NC(C)C)CC4)c(F)c3c2C(C)C)cn2ncnc2c1C (centres unmarked) [Example 85]
,8.60,,4.77,8.92,Cc1c(-c2[nH]c3cnc(N4CCN(C5CCC5)C[C@H]4C)c(F)c3c2C(C)C)cn2ncnc2c1C [Example 458]
7.15,8.64,8.70,,,Cc1c(-c2[nH]c3cnc(C4CCC(NC5CCOCC5)CC4)c(C)c3c2C(C)C)cn2ncnc2c1C (centres unmarked) [Example 120]
5.54,8.66,8.66,,,CCN(CCC#N)C1CCN(c2ncc3[nH]c(-c4cc(C)c5ncnn5c4)c(C(C)C)c3c2C)CC1 [Example 286]
5.56,8.68,8.40,,,Cc1cc(-c2[nH]c3cnc(C4CCC(N(C)C(C)C)CC4)c(F)c3c2C(C)C)cn2ncnc12 (centres unmarked) [Example 108]
4.78,8.68,8.59,,,CNC(=O)CN(C)C1CCN(c2ncc3[nH]c(-c4cc(C)c5ncnn5c4)c(C(C)C)c3c2F)CC1 [Example 259]
5.84,8.68,9.64,,,COc1cc(-c2[nH]c3cnc(N4CCC(NCC5(C)COC5)CC4)cc3c2C(C)C)cn2ncnc12 [Example 322]
4.99,8.74,8.29,,,COc1cc(-c2[nH]c3cnc(N4CCN(C)C[C@H]4C)c(F)c3c2C(C)C)cn2ncnc12 [Example 436]
6.81,8.77,8.55,,,Cc1c(-c2[nH]c3cnc(C4CCN(C(C)C)CC4)cc3c2C(C)C)cn2ncnc2c1C [Example 35]
5.68,8.80,8.42,,,Cc1cc(-c2[nH]c3cnc(C4CCN(C(C)C)CC4)c(F)c3c2C(C)C)cn2ncnc12 [Example 212]
6.40,8.80,7.85,,,"CNC(=O)CN1CCC(c2ncc3[nH]c(-c4cc(OC)c5ncnn5c4)c(C(C)C)c3c2C)CC1 [Example 2, 2-(4-(3-isopropyl-2-(8-methoxy-[1,2,4]triazolo[1,5-a]pyridin-6-yl)-4-methyl-1H-pyrrolo[2,3-c]pyridin-5-yl)piperidin-1-yl)-N-methylacetamide]"
5.39,8.85,9.05,,,COc1cc(-c2[nH]c3cnc(N4CCN(C5CCC5)CC4)c(F)c3c2C(C)C)cn2ncnc12 [Example 391]
,9.07,,5.72,9.25,Cc1cc(-c2[nH]c3cnc(N4CCC(NC(C)C)CC4)c(F)c3c2C(C)C)cn2ncnc12 [Example 219]
5.11,9.11,9.17,,,Cc1c(-c2[nH]c3cnc(C4CCC(NC5COC5)CC4)c(F)c3c2C(C)C)cn2ncnc2c1C (centres unmarked) [Example 174]
5.22,9.11,9.46,,,Cc1cc(-c2[nH]c3cnc(N4CCC(NCC(C)(C)O)CC4)c(F)c3c2C(C)C)cn2ncnc12 [Example 258]
5.86,9.30,8.70,,,Cc1c(N2CCC(N3CC4(COC4)C3)CC2)ncc2[nH]c(-c3cc(C)c4ncnn4c3)c(C(C)C)c12 [Example 53]
5.79,9.34,9.57,,,Cc1c(N2CCC(NCC(C)(C)O)CC2)ncc2[nH]c(-c3cc(C)c4ncnn4c3)c(C(C)C)c12 [Example 283]
,9.40,,6.17,9.21,COc1cc(-c2[nH]c3cnc(C4CCC(NC5COC5)CC4)c(F)c3c2C(C)C)cn2ncnc12 (centres unmarked) [Example 224]
5.66,9.62,9.00,5.66,9.00,CCN(C)C1CCN(c2ncc3[nH]c(-c4cc(C)c5ncnn5c4)c(C(C)C)c3c2C)CC1 [Example 235]
,10.30,,4.96,10.30,Cc1c(-c2[nH]c3cnc(N4CCN(C)C[C@H]4C)c(F)c3c2C(C)C)cn2ncnc2c1C [Example 454]
